Measured values taken from the NIST ThermoML archive (doi:10.1021/je700297c).
Numbers after ± are expanded uncertainties.

Assay: activity coefficient (dimensionless); of the first substance listed, at infinite dilution; xn = mol fraction of the nth substance listed
Settings: Liquid, Chromatography, x1 = 0

| SMILES | activity coefficient (303 K) | activity coefficient (323 K) | activity coefficient (333 K) | activity coefficient (298 K) |
| --- | --- | --- | --- | --- |
| CCOC(C)=O [ethyl acetate] + C[n+]1ccn(CCCC#N)c1.O=S(=O)([N-]S(=O)(=O)C(F)(F)F)C(F)(F)F | 2.1 ± 0.2 | 2.1 ± 0.2 | – | – |
| CCCCCCC [heptane] + CCCCCCCCCCCCCCCC(=O)[O-].CCCCn1cc[n+](C)c1 | – | – | 1.4 ± 0.1 | – |
| CCCCCCC [heptane] + CCCCCCCCCCCCCCCCCC(=O)[O-].CCCCn1cc[n+](C)c1 | – | 1.8 ± 0.1 | 1.5 ± 0.1 | – |
| CCCCCCC [heptane] + CCCCCCCC[n+]1ccn(C)c1.F[B-](F)(F)F | – | 8.4 ± 0.6 | – | 11 ± 0.8 |
| CCCCCCC [heptane] + CCCC[n+]1ccn(C)c1.O=S(=O)([N-]S(=O)(=O)C(F)(F)F)C(F)(F)F | – | 15.5 ± 1.1 | – | – |
| CCCCCCC [heptane] + CCCCn1cc[n+](C)c1.F[B-](F)(F)F | – | 70.3 ± 4.8 | – | 83.5 ± 5.7 |
| CCCCCCC [heptane] + C[n+]1ccn(CCCC#N)c1.N#CN=C=[N-] | 231 ± 16 | 197 ± 14 | – | – |
| CCCCCCC [heptane] + C[n+]1ccn(CCCC#N)c1.O=S(=O)([N-]S(=O)(=O)C(F)(F)F)C(F)(F)F | 134 ± 9.2 | 126 ± 8.7 | – | – |
| C=CCCCC [hex-1-ene] + CCCCCCCCCCCCCCCC(=O)[O-].CCCCn1cc[n+](C)c1 | – | – | 1.1 ± 0.1 | – |
| C=CCCCC [hex-1-ene] + CCCCCCCCCCCCCCCCCC(=O)[O-].CCCCn1cc[n+](C)c1 | – | 1.4 ± 0.1 | 1.2 ± 0.1 | – |
| C=CCCCC [hex-1-ene] + CCCCCCCC[n+]1ccn(C)c1.F[B-](F)(F)F | – | 3.9 ± 0.3 | – | 4.9 ± 0.3 |
| C=CCCCC [hex-1-ene] + CCCC[n+]1ccn(C)c1.O=S(=O)([N-]S(=O)(=O)C(F)(F)F)C(F)(F)F | – | 6 ± 0.4 | – | – |
| C=CCCCC [hex-1-ene] + CCCCn1cc[n+](C)c1.F[B-](F)(F)F | – | 21.8 ± 1.5 | – | 25.8 ± 1.8 |
| C=CCCCC [hex-1-ene] + C[n+]1ccn(CCCC#N)c1.N#CN=C=[N-] | 71.7 ± 4.9 | 60.4 ± 4.1 | – | – |
| C=CCCCC [hex-1-ene] + C[n+]1ccn(CCCC#N)c1.O=S(=O)([N-]S(=O)(=O)C(F)(F)F)C(F)(F)F | 54.2 ± 3.7 | 47.1 ± 3.2 | – | – |
| CCCCCC [hexane] + CCCCCCCCCCCCCCCC(=O)[O-].CCCCn1cc[n+](C)c1 | – | – | 1.3 ± 0.1 | – |
| CCCCCC [hexane] + CCCCCCCCCCCCCCCCCC(=O)[O-].CCCCn1cc[n+](C)c1 | – | 1.7 ± 0.1 | 1.4 ± 0.1 | – |
| CCCCCC [hexane] + CCCCCCCC[n+]1ccn(C)c1.F[B-](F)(F)F | – | 6.7 ± 0.5 | – | 8.6 ± 0.6 |
| CCCCCC [hexane] + CCCC[n+]1ccn(C)c1.O=S(=O)([N-]S(=O)(=O)C(F)(F)F)C(F)(F)F | – | 12.8 ± 0.9 | – | – |
| CCCCCC [hexane] + CCCCn1cc[n+](C)c1.F[B-](F)(F)F | – | 50.6 ± 3.5 | – | 65.9 ± 4.5 |
| CCCCCC [hexane] + C[n+]1ccn(CCCC#N)c1.N#CN=C=[N-] | 213 ± 15 | 145 ± 9.9 | – | – |
| CCCCCC [hexane] + C[n+]1ccn(CCCC#N)c1.O=S(=O)([N-]S(=O)(=O)C(F)(F)F)C(F)(F)F | 126 ± 8.6 | 113 ± 7.7 | – | – |
| CO [methanol] + CCCCCCCCCCCCCCCC(=O)[O-].CCCCn1cc[n+](C)c1 | – | – | 0.3 ± 0.1 | – |

| SMILES | activity coefficient (303 K) | activity coefficient (323 K) | activity coefficient (333 K) | activity coefficient (298 K) |
| --- | --- | --- | --- | --- |
| CO [methanol] + CCCCCCCCCCCCCCCCCC(=O)[O-].CCCCn1cc[n+](C)c1 | – | 0.3 ± 0.1 | 0.3 ± 0.1 | – |
| CO [methanol] + CCCCCCCC[n+]1ccn(C)c1.F[B-](F)(F)F | – | 0.3 ± 0.1 | – | 0.3 ± 0.1 |
| CO [methanol] + CCCC[n+]1ccn(C)c1.O=S(=O)([N-]S(=O)(=O)C(F)(F)F)C(F)(F)F | – | 0.8 ± 0.1 | – | – |
| CO [methanol] + CCCCn1cc[n+](C)c1.F[B-](F)(F)F | – | 0.7 ± 0.1 | – | 0.8 ± 0.1 |
| CO [methanol] + C[n+]1ccn(CCCC#N)c1.N#CN=C=[N-] | 0.3 ± 0.1 | 0.3 ± 0.1 | – | – |
| CO [methanol] + C[n+]1ccn(CCCC#N)c1.O=S(=O)([N-]S(=O)(=O)C(F)(F)F)C(F)(F)F | 1.1 ± 0.1 | 1 ± 0.1 | – | – |
| CC1CCCCC1 [methylcyclohexane] + CCCCCCCCCCCCCCCC(=O)[O-].CCCCn1cc[n+](C)c1 | – | – | 1 ± 0.1 | – |
| CC1CCCCC1 [methylcyclohexane] + CCCCCCCCCCCCCCCCCC(=O)[O-].CCCCn1cc[n+](C)c1 | – | 1.3 ± 0.1 | 1.3 ± 0.1 | – |
| CC1CCCCC1 [methylcyclohexane] + CCCCCCCC[n+]1ccn(C)c1.F[B-](F)(F)F | – | 5.3 ± 0.4 | – | 6.7 ± 0.5 |
| CC1CCCCC1 [methylcyclohexane] + CCCC[n+]1ccn(C)c1.O=S(=O)([N-]S(=O)(=O)C(F)(F)F)C(F)(F)F | – | 9.1 ± 0.6 | – | – |
| CC1CCCCC1 [methylcyclohexane] + CCCCn1cc[n+](C)c1.F[B-](F)(F)F | – | 35.5 ± 2.4 | – | 43.7 ± 3 |
| CC1CCCCC1 [methylcyclohexane] + C[n+]1ccn(CCCC#N)c1.N#CN=C=[N-] | 118 ± 8.1 | 84.9 ± 5.8 | – | – |
| CC1CCCCC1 [methylcyclohexane] + C[n+]1ccn(CCCC#N)c1.O=S(=O)([N-]S(=O)(=O)C(F)(F)F)C(F)(F)F | 75.1 ± 5.1 | 66.2 ± 4.5 | – | – |
| C=CCCCCCC [oct-1-ene] + CCCCCCCCCCCCCCCC(=O)[O-].CCCCn1cc[n+](C)c1 | – | – | 1.4 ± 0.1 | – |
| C=CCCCCCC [oct-1-ene] + CCCCCCCCCCCCCCCCCC(=O)[O-].CCCCn1cc[n+](C)c1 | – | 1.7 ± 0.1 | 1.4 ± 0.1 | – |
| C=CCCCCCC [oct-1-ene] + CCCCCCCC[n+]1ccn(C)c1.F[B-](F)(F)F | – | 6.6 ± 0.5 | – | 7.8 ± 0.5 |
| C=CCCCCCC [oct-1-ene] + CCCC[n+]1ccn(C)c1.O=S(=O)([N-]S(=O)(=O)C(F)(F)F)C(F)(F)F | – | 12.3 ± 0.8 | – | – |
| C=CCCCCCC [oct-1-ene] + CCCCn1cc[n+](C)c1.F[B-](F)(F)F | – | 48.3 ± 3.3 | – | 59.1 ± 4 |
| C=CCCCCCC [oct-1-ene] + C[n+]1ccn(CCCC#N)c1.N#CN=C=[N-] | 142 ± 9.8 | 136 ± 9.3 | – | – |
| C=CCCCCCC [oct-1-ene] + C[n+]1ccn(CCCC#N)c1.O=S(=O)([N-]S(=O)(=O)C(F)(F)F)C(F)(F)F | 119 ± 8.1 | 106 ± 7.2 | – | – |
| CCCCCCCC [octane] + CCCCCCCCCCCCCCCC(=O)[O-].CCCCn1cc[n+](C)c1 | – | – | 1.6 ± 0.1 | – |
| CCCCCCCC [octane] + CCCCCCCCCCCCCCCCCC(=O)[O-].CCCCn1cc[n+](C)c1 | – | 2.1 ± 0.2 | 1.6 ± 0.1 | – |
| CCCCCCCC [octane] + CCCCCCCC[n+]1ccn(C)c1.F[B-](F)(F)F | – | 11 ± 0.8 | – | 16.1 ± 1.1 |

| SMILES | activity coefficient (303 K) | activity coefficient (323 K) | activity coefficient (333 K) | activity coefficient (298 K) |
| --- | --- | --- | --- | --- |
| CCCCCCCC [octane] + CCCC[n+]1ccn(C)c1.O=S(=O)([N-]S(=O)(=O)C(F)(F)F)C(F)(F)F | – | 23.4 ± 1.6 | – | – |
| CCCCCCCC [octane] + CCCCn1cc[n+](C)c1.F[B-](F)(F)F | – | 95.5 ± 6.5 | – | 117 ± 8 |
| CCCCCCCC [octane] + C[n+]1ccn(CCCC#N)c1.N#CN=C=[N-] | 264 ± 18 | 204 ± 14 | – | – |
| CCCCCCCC [octane] + C[n+]1ccn(CCCC#N)c1.O=S(=O)([N-]S(=O)(=O)C(F)(F)F)C(F)(F)F | 191 ± 13 | 159 ± 11 | – | – |
| C1CCOC1 [tetrahydrofuran] + CCCCCCCCCCCCCCCC(=O)[O-].CCCCn1cc[n+](C)c1 | – | – | 0.6 ± 0.1 | – |
| C1CCOC1 [tetrahydrofuran] + CCCCCCCCCCCCCCCCCC(=O)[O-].CCCCn1cc[n+](C)c1 | – | 0.7 ± 0.1 | 0.6 ± 0.1 | – |
| C1CCOC1 [tetrahydrofuran] + CCCCCCCC[n+]1ccn(C)c1.F[B-](F)(F)F | – | 0.6 ± 0.1 | – | 0.7 ± 0.1 |
| C1CCOC1 [tetrahydrofuran] + CCCC[n+]1ccn(C)c1.O=S(=O)([N-]S(=O)(=O)C(F)(F)F)C(F)(F)F | – | 0.4 ± 0.1 | – | – |
| C1CCOC1 [tetrahydrofuran] + CCCCn1cc[n+](C)c1.F[B-](F)(F)F | – | 1.4 ± 0.1 | – | 1.4 ± 0.1 |
| C1CCOC1 [tetrahydrofuran] + C[n+]1ccn(CCCC#N)c1.N#CN=C=[N-] | 1.6 ± 0.1 | 1.5 ± 0.1 | – | – |
| C1CCOC1 [tetrahydrofuran] + C[n+]1ccn(CCCC#N)c1.O=S(=O)([N-]S(=O)(=O)C(F)(F)F)C(F)(F)F | 1.3 ± 0.1 | 1.2 ± 0.1 | – | – |
| c1ccsc1 [thiophene] + CCCCCCCCCCCCCCCC(=O)[O-].CCCCn1cc[n+](C)c1 | – | – | 0.9 ± 0.1 | – |
| c1ccsc1 [thiophene] + CCCCCCCCCCCCCCCCCC(=O)[O-].CCCCn1cc[n+](C)c1 | – | 0.8 ± 0.1 | 0.8 ± 0.1 | – |
| c1ccsc1 [thiophene] + CCCCCCCC[n+]1ccn(C)c1.F[B-](F)(F)F | – | 0.8 ± 0.1 | – | 0.9 ± 0.1 |
| c1ccsc1 [thiophene] + CCCC[n+]1ccn(C)c1.O=S(=O)([N-]S(=O)(=O)C(F)(F)F)C(F)(F)F | – | 0.7 ± 0.1 | – | – |
| c1ccsc1 [thiophene] + CCCCn1cc[n+](C)c1.F[B-](F)(F)F | – | 1.5 ± 0.1 | – | 1.7 ± 0.1 |
| c1ccsc1 [thiophene] + C[n+]1ccn(CCCC#N)c1.N#CN=C=[N-] | 1.7 ± 0.1 | 1.6 ± 0.1 | – | – |
| c1ccsc1 [thiophene] + C[n+]1ccn(CCCC#N)c1.O=S(=O)([N-]S(=O)(=O)C(F)(F)F)C(F)(F)F | 1.5 ± 0.1 | 1.4 ± 0.1 | – | – |
| Cc1ccccc1 [toluene] + CCCCCCCCCCCCCCCC(=O)[O-].CCCCn1cc[n+](C)c1 | – | – | 0.8 ± 0.1 | – |
| Cc1ccccc1 [toluene] + CCCCCCCCCCCCCCCCCC(=O)[O-].CCCCn1cc[n+](C)c1 | – | 0.8 ± 0.1 | 0.8 ± 0.1 | – |
| Cc1ccccc1 [toluene] + CCCCCCCC[n+]1ccn(C)c1.F[B-](F)(F)F | – | 0.9 ± 0.1 | – | 1 ± 0.1 |
